Measurements as given in patent publication US20160279079A1, “COMPOSITIONS AND METHODS FOR TREATING BONE DISEASES” (INDIANA UNIVERSITY RESEARCH AND TECHNOLOGY CORPORATION, priority 2013, published 2016).
Like-named read-outs stand apart in the source and are kept apart here.

Assays:
[1] = test system: RAW264.7 mouse pre-osteoclast (monocyte/macrophage) cells; experiment: Cell mortality and live cell numbers (trypan blue, hemacytometer); assay type: cell-based
Procedure: METHOD EXAMPLE. Cell culture. MC3T3 E1 mouse osteoblast-like cells (clone 14—MC3T3 E1-14; and no clonal cells in supplementary figures), and RAW264.7 mouse pre-osteoclast (monocyte/macrophage) cells were cultured in αMEM containing 10% fetal bovine serum and antibiotics (50 units/ml penicillin, and 50 μg/ml streptomycin; Life Technologies, Grand Island, N.Y., USA). Cells were maintained at 37° C. and 5% CO2 in a humidified incubator. Cell mortality and live cell numbers were determined 24 h after the treatment with 20 ng/ml RANKL (PeproTech, Rocky Hills, N.C., USA) in response to 0.1-20 μM salubrinal or 1-20 μM guanabenz acetate (Tocris Bioscience, Ellisville, Mo., USA). Cells were stained with trypan blue and the numbers of live and dead cells were counted using a hemacytometer.
(§1) METHOD EXAMPLE. Inhibition of osteoclastogenesis of RAW264.7 cells by salubrinal. The primary aim of this study is to evaluate the effects of salubrinal on osteoclastogenesis. In response to 0.1-20 μM salubrinal for 24 h, cell mortality and live cell numbers of RAW264.7 pre-osteoclasts was examined. […] The number of live cells was increased by ˜50% by incubation with RANKL, and administration of 10-20 μM salubrinal reduced the numbers approximately by 10% (FIG. 3B).
(§2) METHOD EXAMPLE. Inhibitory effects of guanabenz on osteoclastogenesis of RAW264.7 cells. To further examine a potential involvement of p-eIF2α in regulation of osteoclastogenesis, we employed guanabenz that also acts as an inhibitor of de-phosphorylation of eIF2α was evaluated. […] Compared to the number of TRAP-positive multi-nucleated cells of 377 39 (RANKL only), guanabenz reduced the number of differentiated osteoclasts to 364±38 (1 μM), 288±51 (5 μM), 189±25 (10 μM), and 73±16 (20 μM).

RAW264.7 cells = experiment: Osteoclastogenesis in vitro and TRAP staining; assay type: cell-based, mouse; details: for number of TRAP-positive multi-nucleated cells: with 20 ng/ml RANKL, 5 days of culture; for growth area covered by multi-nucleated cells: dose dependent
Procedure: as §1, §2
METHOD EXAMPLE. Osteoclastogenesis in vitro and TRAP (Tartrate-resistant acid phosphatase) staining. RAW264.7 cells were plated at a density of 5×10^3/cm^2 into a 12-well or a 60 mm dish, and cultured with 20 ng/ml RANKL in the presence and absence of salubrinal or guanabenz. The culture medium was replaced every 2 days. After 5 days of culture, the cells were stained for TRAP staining using an acid phosphatase leukocyte kit (Sigma). The number of TRAP-positive cells containing three or more nuclei was determined

NFATc1 = experiment: Quantitative real-time PCR, NFATc1 mRNA in RAW264.7 cells; assay type: cell-based, mouse
Procedure: METHOD EXAMPLE. Quantitative real-time PCR. Total RNA was extracted using an RNeasy Plus mini kit (Qiagen, Germantown, Md., USA). Reverse transcription was conducted with high capacity cDNA reverse transcription kits (Applied Biosystems, Carlsbad, Calif., USA), and quantitative real-time PCR was performed using ABI 7500 with Power SYBR green PCR master mix kits (Applied Biosystems). We evaluated mRNA levels of ATF4, Osteocalcin (OCN), NFATcl, c-Fos, tartrate-resistant acid phosphatase (TRAP), and osteoclast-associated receptor (OSCAR) with the PCR primers listed in Table 1. GAPDH was used for internal control. The relative mRNA abundance for the selected genes with respect to the level of GAPDH mRNA was expressed as a ratio of Streated/Scontrol, where Streated=mRNA level for the cells treated with chemical agents, and Scontrol=mRNA level for control cells.
METHOD EXAMPLE. Partial suppression of mRNA levels of NFATcl, c-Fos, TRAP, and OSCAR by salubrinal. […] On day 2, for instance, the RANKL-driven increase was 9.4±0.5 fold (NFATcl), 1.9±0.1 fold (c-fos), 165±4.2 fold (TRAP), and 467±22 fold (OSCAR). The reduction by 20 μM salubrinal was 46% (NFATcl), 32% (c-fos), 35% (TRAP), and 21% (OSCAR) (FIG. 5A).
METHOD EXAMPLE. Reduction of RANKL-induced NFATcl, c-Fos, TRAP, and OSCAR by guanabenz. […] The normalized level of “1” was defined as the level for the cells that were not treated with RANKL without administration of guanabenz.

ATF4 = experiment: Western immunoblotting, ATF4 in MC3T3 E1-14 cells; assay type: cell-based, mouse
Procedure: METHOD EXAMPLE. Western Immunoblotting. Cells were lysed in a radioimmunoprecipitation assay (RIPA) buffer containing protease inhibitors (Santa Cruz Biotechnology, Santa Cruz, Calif., USA) and phosphatase inhibitors (Calbiochem, Billerica, Mass., USA). Isolated proteins were fractionated using 10-15% SDS gels and electro-transferred to Immobilon-P membranes (Millipore, Billerica, Mass., USA). The membrane was incubated for 1 h with primary antibodies followed by 45 min incubation with goat anti-rabbit or anti-mouse IgG conjugated with horseradish peroxidase (Cell Signaling, Danvers, Mass., USA). We used antibodies against ATF4, NFATcl (Santa Cruz), p-eIF2α (Thermo Scientific, Waltham, Mass., USA), eIF2α, caspase 3, cleaved caspase 3, p38 and p-p38 mitogen activated protein kinase (MAPK), extracellular signal-regulated kinase (ERK) and p-ERK, nuclear factor kappa B (NFκB) p65 and p-NFκB p65 (Cell Signaling), and β-actin (Sigma). Protein levels were assayed using a SuperSignal west femto maximum sensitivity substrate (Thermo Scientific), and signal intensities were quantified with a luminescent image analyzer (LAS-3000, Fuji Film, Tokyo, Japan).
METHOD EXAMPLE. ATF4-mediated elevation of osteocalcin mRNA in MC3T3 E1-14 cells. Salubrinal is an inhibitor of de-phosphorylation of eIF2α. […]

| Structure (SMILES) | cell mortality [1] | number of TRAP-positive multi-nucleated cells (RAW264.7 cells; 1 μM) | number of TRAP-positive multi-nucleated cells (RAW264.7 cells; 5 μM) | number of TRAP-positive multi-nucleated cells (RAW264.7 cells; 10 μM) | number of TRAP-positive multi-nucleated cells (RAW264.7 cells; 20 μM) | growth area covered by multi-nucleated cells (RAW264.7 cells) | osteoclastogenesis of RAW264.7 cells (RAW264.7 cells; guanabenz dose response, with RANKL) | NFATc1 mRNA level (NFATc1; 20 μM guanabenz, 2 days after RANKL) | ATF4 (ATF4; guanabenz) | Cell mortality ratio ([1]; 0.1-20 μM salubrinal, 24 h, presence and absence of RANKL) | reduction of the number of live cells ([1]; 10-20 μM salubrinal, 24 h, with RANKL) [%] | cell mortality ([1]; absence of RANKL administration) | number of TRAP-positive cells (RAW264.7 cells; 0.5 μM to 20 μM salubrinal, with RANKL) | reduction of NFATc1 mRNA level (NFATc1; 20 μM salubrinal, day 2 after RANKL) [%] | NFATc1 mRNA level (NFATc1; 0.1-1 μM salubrinal, with RANKL, except on day 4) | ATF4 expression (ATF4; 5 μM salubrinal) |
| --- | --- | --- | --- | --- | --- | --- | --- | --- | --- | --- | --- | --- | --- | --- | --- | --- |
| N=C(N)N/N=C/c1c(Cl)cccc1Cl [guanabenz] | did not significantly alter | 364±38 | 288±51 | 189±25 | 73±16 | significantly reduced | attenuated osteoclastogenesis of RAW264.7 cells in a dose dependent manner | reduced | increase in p-eIF2α and ATF4 |  |  |  |  |  |  |  |
| O=C(/C=C/c1ccccc1)NC(NC(=S)Nc1cccc2cccnc12)C(Cl)(Cl)Cl (centres unmarked) [salubrinal] |  |  |  |  |  | significantly reduced |  |  |  | did not present statistically significant differences | ~10 | did not significantly alter | reduced the number of TRAP-positive cells in a dose dependent manner | 46 | did not contribute to significant reduction | increase in ATF4 expression |
